The values that follow come from US4439434A, “Cephalosporin derivative and pharmaceutical composition containing the derivative” (Kureha Kagaku Kogyo Kabushiki Kaisha, priority 1981, dated 1984).

The subject of series [1] is Escherichia coli IFO 12734. In words: Antibacterial activity (MIC, agar plate) against E. coli. As to conditions: Escherichia coli IFO 12734, Mueller-Hinton agar, 37° C., 18 to 24 hours; unit assumed. The format is cell-based. As to the method: (§1) Antibacterial activity of each of the cephalosporin derivatives of the invention prepared in Examples 1 to 10 was examined against the following two bacteria according to the standard method of Japan Society of Chemitherapy: Escherichia coli IFO 12734 and Staphylococcus aureus IAM 1011.
(§2) Each bacterial strain was inoculated into the Mueller-Hinton's culture medium and cultured at 37° C. for 18 to 48 hours. The cultured medium was diluted so as to contain 1×10^6 cells of the bacteria per one ml, and the obtained medium was used as the bacterial specimen.
(§3) Agar plates were prepared by adding one part by weight of each solution of the cephalosporin derivative of the invention at a predetermined concentration to nine parts by weight of Mueller-Hinton's culture medium.
(§4) A loopful amount of the bacterial specimen prepared above was smeared to make a streak of about 2 cm on each agar plate prepared above and cultured at 37° C. for 18 to 24 hours.
(§5) The minimum concentration for completely inhibiting proliferation of the bacteria (referred to as MIC) was determined.

In series [2] the test system is Lactobacillus acidophilus. Put plainly: Effect on the intestinal bacterial colonies: Lactobacillus acidophilus in feces. The class given is in vivo. To be noted: mice, oral 500 mg/kg/day for two consecutive days, feces one day after administration. The protocol:
(§6) Each of the cephalosporin derivatives of the invention prepared in Examples 1 to 10 was orally administered to mice (one group consisting of five female ICR mice of 6-week-old) for two consecutive days at a dose of 500 mg/kg/day.
(§7) Before and one day after the administration, feces of each mouse were collected and diluted with an anaerobic diluent (phosphoric buffer solution) of 100 times volume and the diluted feces were ground. 0.1 ml of the diluted and ground feces was smeared on each culture medium shown in Table 1 and cultured aerobically or anaerobically (according to the anaerobic glove box method) under each condition shown in Table 1 and the number of each bacterium shown in Table 1 was counted.
Lactobacillus acidophilus
LBS agar anaerobic, 37° C.,

In another series the test system is Streptococcus spp. Put plainly: Effect on the intestinal bacterial colonies: Streptococcus spp. in feces. As to conditions: mice, oral 500 mg/kg/day for two consecutive days, feces one day after administration. The format is in vivo. As to the method: as §6, §7
TATAC agar aerobic, 37° C.,

The test system of another series is Escherichia coli. Put plainly: Effect on the intestinal bacterial colonies: Escherichia coli in feces. As to conditions: mice, oral 500 mg/kg/day for two consecutive days, feces one day after administration. The format is in vivo. As to the method: as §6, §7
DHL agar aerobic, 37° C.,

The test system of series [3] is Staphylococcus aureus IAM 1011. Put plainly: Activation by rat liver homogenate (S-9 mix), proliferation-inhibiting circle, penicillin cup method. The format is cell-based. As to conditions: incubated with rat liver S-9 mix, 37° C. 20 min; circle diameter relative to the starting compound. As to the method:
As an activating enzyme of metabolism, a rat liver homogenate (S-9, manufactured by Oriental Yeast Company, Japan) was used in the following composition per 1 ml (hereinafter referred to as S-9 mix). 0.1 ml of the solution of each of the cephalosporin derivatives of the invention prepared in Examples 1 to 10 at a concentration of 100 μg/ml was mixed with 0.9 ml of S-9 mix or 0.9 ml of 0.1 M phosphoric buffer solution (as a control) and the obtained mixture was incubated at 37° C. for 20 min. with shaking. Staphylococcus aureus IAM 1011 was inoculated into a Mueller-Hinton's culture medium and cultured at 37° C. for 18 hours. The culture medium was adjusted to a cell concentration of 1×10^8 per 1 ml and mixed with 50 times by volume of Mueller-Hinton's agar culture medium to obtain an agar plate. A penicillin cup of 8 mm in diameter was placed on the agar plate prepared above, and into the cup 0.1 ml of the mixture containing the cephalosporin derivative prepared above was introduced and allowed to stand at 4° C. for 2 hours, and then cultured at 37° C. for 18 hours to measure the diameter of a circle in which the proliferation of bacteria was inhibited (proliferation-inhibiting circle). In Table 4, the proliferation-inhibiting index is shown in the ratio (%) of the diameter of the proliferation-inhibiting circle obtained by using each of the cephalosporin derivatives of the invention to that obtained by using each of the starting compound in preparing each of the cephalosporin derivatives of the invention.

The subject of another series is Pseudomonas aeruginosa. Put plainly: Effect on the intestinal bacterial colonies: Pseudomonas aeruginosa in feces. The class given is in vivo. To be noted: mice, oral 500 mg/kg/day for two consecutive days, feces one day after administration. As to the method: as §6, §7
NAC agar aerobic, 37° C.,

The subject of a further series is Bacteroides. In words: Effect on the intestinal bacterial colonies: Bacteroides in feces. The class given is in vivo. As to conditions: mice, oral 500 mg/kg/day for two consecutive days, feces one day after administration. As to the method: as §6, §7
Bacteroides NBGT agar anaerobic, 37° C.,

The subject of series [4] is Staphylococcus aureus IAM 1011. In words: Antibacterial activity (MIC, agar plate) against Staph. aureus. The format is cell-based. To be noted: Staphylococcus aureus IAM 1011, Mueller-Hinton agar, 37° C., 18 to 24 hours; unit assumed. As to the method:
as §1, §2, §3, §4, §5

Another series relates to Lactobacillus bifidus. In words: Effect on the intestinal bacterial colonies: Lactobacillus bifidus in feces. To be noted: mice, oral 500 mg/kg/day for two consecutive days, feces one day after administration. The format is in vivo. The protocol: as §6, §7
BS agar anaerobic, 37° C.,

Another series relates to ICR-JCL mouse. To be noted: conventional cephalosporin antibiotic, route not stated; cited from earlier work.

Consider `COC(=O)CNC(=O)c1ccc(NC(=O)C2=C(COC(C)=O)CSC3C(NC(=O)Cc4cccs4)C(=O)N23)cc1` (stereo not shown) [Example 9, N-(4-carbomethoxymethylcarbamoylphenyl)-7-(thienyl-2-acetamido)cephalosporanic acid amide], for which the MIC E. coli in series [1] is at least 100 µg/mL. Moreover, the “Logarithmic value of the number of bacterial cells per one g of feces, L. acidophilus” value in [2] is 9.3. Moreover, in the series with Streptococcus spp., the “Logarithmic value of the number of bacterial cells per one g of feces, Strept. spp.” value was found to be 7.1. For the same compound, in the series with Escherichia coli, the “Logarithmic value of the number of bacterial cells per one g of feces, E. coli” value turned out to be 6.5. Besides, in series [3], the “Proliferation-inhibiting index (%) After adding S-9 mix” value is “+++ (66-100)”. Also, in the series on Pseudomonas aeruginosa, the “Logarithmic value of the number of bacterial cells per one g of feces, Ps. aeruginosa” value is recorded as under 3.0. Further, the “Logarithmic value of the number of bacterial cells per one g of feces, Bacteroides” value with Bacteroides was found to be 8.1. This compound displayed an MIC Staph. aureus in series [4] of at least 12.5 µg/mL. Also, the “Logarithmic value of the number of bacterial cells per one g of feces, L. bifidus” value in the series on Lactobacillus bifidus came to 8.6.

On to `COC(=O)c1ccccc1NC(=O)C1=C(COC(C)=O)CSC2C(NC(=O)Cc3cccs3)C(=O)N12` (stereo not shown) [Example 10, N-(2-carbomethoxyphenyl)-7-(thienyl-2-acetamido)cephalosporanic acid amide], for which, in series [1], the MIC E. coli was at least 100 µg/mL. Besides, the “Logarithmic value of the number of bacterial cells per one g of feces, L. acidophilus” value in series [2] is on record as 9.0. The “Logarithmic value of the number of bacterial cells per one g of feces, Strept. spp.” value in the series with Streptococcus spp. was determined as 6.4. The “Logarithmic value of the number of bacterial cells per one g of feces, E. coli” value in the series with Escherichia coli stood at 6.5. For the same compound, in series [3], the “Proliferation-inhibiting index (%) After adding S-9 mix” value was “+ (1-33)”. The “Logarithmic value of the number of bacterial cells per one g of feces, Ps. aeruginosa” value in the series on Pseudomonas aeruginosa is under 3.0. For the same compound, the “Logarithmic value of the number of bacterial cells per one g of feces, Bacteroides” value with Bacteroides is given as 8.0. In [4], this compound yielded an MIC Staph. aureus of at least 12.5 µg/mL. Besides, the “Logarithmic value of the number of bacterial cells per one g of feces, L. bifidus” value in the series on Lactobacillus bifidus was determined as 8.2.

Turning to `CC(=O)OCC1=C(C(=O)O)N2C(=O)[C@@H](NC(=O)Cc3cccs3)[C@H]2SC1` [cephalotin sodium], in the series on ICR-JCL mouse, the LD50 result is “about 5 g/kg”.
